Earlier results on 1 compound are cited in patent publication US11643385B2, “Polymorphic forms of RAD1901-2HCl” (RADIUS PHARMACEUTICALS, INC., priority 2018, dated 2023).

The data set addresses T1, estrogen receptor (ER) (Homo sapiens, UniProt P03372).
T1 sequence (P03372 1-595): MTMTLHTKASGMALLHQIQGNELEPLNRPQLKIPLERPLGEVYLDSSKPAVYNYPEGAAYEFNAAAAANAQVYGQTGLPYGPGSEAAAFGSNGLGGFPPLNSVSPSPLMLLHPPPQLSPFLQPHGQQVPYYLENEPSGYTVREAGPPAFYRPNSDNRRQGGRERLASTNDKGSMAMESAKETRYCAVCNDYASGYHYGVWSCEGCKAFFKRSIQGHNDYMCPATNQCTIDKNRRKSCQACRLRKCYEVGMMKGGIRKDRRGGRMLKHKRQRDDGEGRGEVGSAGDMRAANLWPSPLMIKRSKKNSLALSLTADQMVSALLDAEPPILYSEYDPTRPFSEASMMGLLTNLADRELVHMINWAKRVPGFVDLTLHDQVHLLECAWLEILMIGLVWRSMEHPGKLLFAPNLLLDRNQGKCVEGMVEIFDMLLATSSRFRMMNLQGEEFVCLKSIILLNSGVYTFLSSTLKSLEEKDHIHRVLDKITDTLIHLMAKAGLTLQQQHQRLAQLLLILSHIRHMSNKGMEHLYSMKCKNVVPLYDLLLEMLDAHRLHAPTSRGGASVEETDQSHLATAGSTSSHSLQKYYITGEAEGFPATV
As to conditions: cited from earlier work.

`CCNCCc1ccc(CN(CC)c2cc(OC)ccc2[C@@H]2CCc3cc(O)ccc3C2)cc1` [RAD1901]: the “Binding selectivity for the estrogen receptor (ER), in words” value was “good selectivity”.
